According to the NIST ThermoML archive (doi:10.1021/acs.jced.8b01247):
± gives the expanded uncertainty stated by the source.

Legend:
[1] = Boiling temperature at pressure P; conditions: Liquid, Ebulliometric method (Recirculating still)
[2] = 337.83 K; Liquid; Ebulliometric method (Recirculating still)

Boiling temperature at pressure P ([1]; 101.3 kPa) [°C]	Boiling temperature at pressure P ([1]; 166.8 kPa) [°C]	Boiling temperature at pressure P ([1]; 217.3 kPa) [°C]	Boiling temperature at pressure P ([1]; 257 kPa) [°C]	Boiling temperature at pressure P ([1]; 313.1 kPa) [°C]	Boiling temperature at pressure P ([1]; 387.5 kPa) [°C]	vapor or sublimation pressure [2] [kPa]	SMILES
109.7 ± 0.87	129.1 ± 1.3	139.94 ± 1.2	146.93 ± 1.2	155.67 ± 1.3	165.49 ± 1.5	–	CCC(C)OCOC (configuration not stated) [2-(methoxymethoxy)butane]
–	–	–	–	–	–	101.3 ± 2.3	CO [methanol]
